# According to paper PMC8206213, “An L-2-hydroxyglutarate biosensor based on specific transcriptional regulator LhgR” (Nature Communications, 2021):
# Values joined by “and” are separate entries in the source; they are usually repeats but may differ in a detail not shown here. Equal entries are not always repeated. “Also recorded” adds a separate entry of the source.
# Assays:
# [1] = test system: LHGFR0N3C expressed in HEK293FT cells; test: Specificity of LHGFR0N3C expressed in permeabilized HEK293FT cells, 1 mM compounds; format: cell-based, human (HEK293FT cells)
# Description: To characterize the sensitivity and specificity of LHGFR expressed in HEK293FT cells, cells were trypsinized 48 h following transfection and suspended in 1× Hank’s balanced salt solution supplemented with 20 mM HEPES. […] Digitonin at a concentration of 10 μM was used to induce cell permeabilization and deplete intracellular L-2-HG for in vivo response curves construction. Then, the fluorescence intensities were determined by a SpectraMax i3 fluorescence plate reader (Molecular Devices, USA) with excitation at 430 nm and emission at 485 nm (mTFP) and 528 nm (Venus). Basal L-2-HG concentration in HEK293FT cells under physiological conditions was determined by substituting the emission ratios of non-permeabilized HEK293FT cells into the calibrated in vivo response curves.
# LhgR = test: EMSA, effect of compounds on LhgR binding to the lhgO promoter region F1; design: species or system Pseudomonas putida W619; details: 50 mM compound, 10 nM F1, 60 nM LhgR
# In short: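 Purified LhgR was preincubated 15 min at 30 °C with candidate effectors (L-lysine, 5-aminovalerate, glutarate, L-2-HG, D-2-HG, 2-KG, succinate), then 30 min at 30 °C with 10 nM F1 or F2 DNA. Buffer: 10 mM Tris-HCl pH 7.4, 50 mM KCl, 10% glycerol, 1 mM DTT. Shift seen on 6% native PAGE with SYBR green I.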
# LHGFR0N3C [2] = test: Specificity of purified LHGFR0N3C, emission ratio with 240 μM compounds; format: binding, Pseudomonas putida W619; details: 240 μM compound
# LHGFR0N3C [3] = test: Influence of other compounds on the response of purified LHGFR0N3C to L-2-HG; format: binding, Pseudomonas putida W619
# In short: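 Purified L-2-HG biosensors were mixed 3:1 with test compounds in 50 mM Tris-HCl pH 7.4, excited at 430 nm, and the 528 nm (Venus)/485 nm (mTFP) emission was read. Responses were fitted with a Hill model giving apparent Kd and Hill slope.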
# LhgO = test: Enzymatic assay of LhgO in crude extracts of P. putida KT2440 derivatives grown on different carbon sources (induction of lhgO under LhgR control); format: cell-based, Pseudomonas putida
# Description: The cells were harvested at mid-log phase, washed twice and resuspended in phosphate-buffered saline (PBS), then lysed by sonication on ice after the addition of 1 mM phenylmethylsulfonyl fluoride (PMSF). […] Protein concentrations of the supernatants were determined using the Bradford protein assay kit (Sangon, China). […] The 800 μL reaction solution contained 0.1 mM […], 0.05 mM DCPIP, 0.2 mM phenazine methosulfate (PMS) in PBS and 40 μL crude extracts.
smiles,measurement,setting,value
"O=C(O)CC[C@H](O)C(=O)O [L-2-HG, L-2-Hydroxyglutarate]",Increase of the emission ratio of LHGFR0N3C,[1]; 10 μM digitonin-permeabilized HEK293FT cells,Only exogenous L-2-HG could significantly increase the emission ratio
same,Normalized emission ratio,"[1]; 1 mM compound, cells permeabilized with 10 μM digitonin, normalized to control",1.418 and 1.367 and 1.404
same,Effect on LhgR binding to the lhgO promoter region F1,LhgR,prevents LhgR binding to the lhgO promoter region; also recorded: release of LhgR from fragments F1 was observed only in the presence of L-2-HG
same,Emission ratio,LHGFR0N3C [2],2.0582 and 2.052 and 2.059
same,Emission ratio of 528/485,"LHGFR0N3C [3]; L-2-HG concentration 0.01, in the absence of 2-KG, Suppl. Fig. 9g",1.4026 and 1.407 and 1.399
same,Emission ratio of 528/485,"LHGFR0N3C [3]; L-2-HG concentration 0.01, in the absence of D-2-HG, Suppl. Fig. 9e",1.361 and 1.439 and 1.415
same,Emission ratio of 528/485,"LHGFR0N3C [3]; L-2-HG concentration 0.01, in the presence of 2-KG, Suppl. Fig. 9g",1.363
same,Emission ratio of 528/485,"LHGFR0N3C [3]; L-2-HG concentration 0.01, in the presence of D-2-HG, Suppl. Fig. 9e",1.406 and 1.467 and 1.446
same,Emission ratio of 528/485,"LHGFR0N3C [3]; L-2-HG concentration 0.1, in the absence of D-2-HG, Suppl. Fig. 9e",1.367 and 1.431 and 1.424
same,Emission ratio of 528/485,"LHGFR0N3C [3]; L-2-HG concentration 0.1, in the presence of D-2-HG, Suppl. Fig. 9e",1.407 and 1.464 and 1.416
same,Emission ratio of 528/485,"LHGFR0N3C [3]; L-2-HG concentration 0.2, in the absence of D-2-HG, Suppl. Fig. 9e",1.3539 and 1.456 and 1.407
same,Emission ratio of 528/485,"LHGFR0N3C [3]; L-2-HG concentration 0.2, in the presence of D-2-HG, Suppl. Fig. 9e",1.417 and 1.4607 and 1.422
same,Emission ratio of 528/485,"LHGFR0N3C [3]; L-2-HG concentration 1, in the absence of D-2-HG, Suppl. Fig. 9e",1.3919 and 1.421 and 1.443
same,Emission ratio of 528/485,"LHGFR0N3C [3]; L-2-HG concentration 1, in the presence of D-2-HG, Suppl. Fig. 9e",1.445 and 1.477 and 1.4328
same,Emission ratio of 528/485,"LHGFR0N3C [3]; L-2-HG concentration 2, in the absence of D-2-HG, Suppl. Fig. 9e",1.397 and 1.479 and 1.464
same,Emission ratio of 528/485,"LHGFR0N3C [3]; L-2-HG concentration 2, in the presence of D-2-HG, Suppl. Fig. 9e",1.472 and 1.492 and 1.494
same,Emission ratio of 528/485,"LHGFR0N3C [3]; L-2-HG concentration 10, in the absence of D-2-HG, Suppl. Fig. 9e",1.597 and 1.623 and 1.644
same,Emission ratio of 528/485,"LHGFR0N3C [3]; L-2-HG concentration 10, in the presence of D-2-HG, Suppl. Fig. 9e",1.611 and 1.627 and 1.593
same,Emission ratio of 528/485,"LHGFR0N3C [3]; L-2-HG concentration 20, in the absence of 2-KG, Suppl. Fig. 9g",1.741 and 1.744 and 1.757
same,Emission ratio of 528/485,"LHGFR0N3C [3]; L-2-HG concentration 20, in the absence of D-2-HG, Suppl. Fig. 9e",1.77 and 1.748 and 1.778
same,Emission ratio of 528/485,"LHGFR0N3C [3]; L-2-HG concentration 20, in the presence of 2-KG, Suppl. Fig. 9g",1.682 and 1.691 and 1.6943
same,Emission ratio of 528/485,"LHGFR0N3C [3]; L-2-HG concentration 20, in the presence of D-2-HG, Suppl. Fig. 9e",1.748 and 1.775 and 1.796
same,Emission ratio of 528/485,"LHGFR0N3C [3]; L-2-HG concentration 100, in the absence of 2-KG, Suppl. Fig. 9g",1.995 and 2.046 and 2.033
same,Emission ratio of 528/485,"LHGFR0N3C [3]; L-2-HG concentration 100, in the absence of D-2-HG, Suppl. Fig. 9e",1.9389 and 1.983 and 2.002
same,Emission ratio of 528/485,"LHGFR0N3C [3]; L-2-HG concentration 100, in the presence of 2-KG, Suppl. Fig. 9g",1.979 and 1.983 and 2.015
same,Emission ratio of 528/485,"LHGFR0N3C [3]; L-2-HG concentration 100, in the presence of D-2-HG, Suppl. Fig. 9e",2.01 and 1.942 and 2.017
same,Emission ratio of 528/485,"LHGFR0N3C [3]; L-2-HG concentration 200, in the absence of 2-KG, Suppl. Fig. 9g",2.097 and 2.071 and 2.086
same,Emission ratio of 528/485,"LHGFR0N3C [3]; L-2-HG concentration 200, in the absence of D-2-HG, Suppl. Fig. 9e",2.026 and 2.0171 and 2.117
same,Emission ratio of 528/485,"LHGFR0N3C [3]; L-2-HG concentration 200, in the presence of 2-KG, Suppl. Fig. 9g",2.058 and 2.06 and 2.089
same,Emission ratio of 528/485,"LHGFR0N3C [3]; L-2-HG concentration 200, in the presence of D-2-HG, Suppl. Fig. 9e",2.039 and 1.978 and 2.053
same,Emission ratio of 528/485,"LHGFR0N3C [3]; L-2-HG concentration 1000, in the absence of 2-KG, Suppl. Fig. 9g",2.1941 and 2.174 and 2.177
same,Emission ratio of 528/485,"LHGFR0N3C [3]; L-2-HG concentration 1000, in the absence of D-2-HG, Suppl. Fig. 9e",2.163 and 2.184 and 2.199
same,Emission ratio of 528/485,"LHGFR0N3C [3]; L-2-HG concentration 1000, in the presence of 2-KG, Suppl. Fig. 9g",2.1301 and 2.167 and 2.163
same,Emission ratio of 528/485,"LHGFR0N3C [3]; L-2-HG concentration 1000, in the presence of D-2-HG, Suppl. Fig. 9e",2.202 and 2.174 and 2.19
same,Emission ratio of 528/485,"LHGFR0N3C [3]; L-2-HG concentration 2000, in the absence of 2-KG, Suppl. Fig. 9g",2.149 and 2.166 and 2.182
same,Emission ratio of 528/485,"LHGFR0N3C [3]; L-2-HG concentration 2000, in the absence of D-2-HG, Suppl. Fig. 9e",2.176 and 2.24 and 2.201
same,Emission ratio of 528/485,"LHGFR0N3C [3]; L-2-HG concentration 2000, in the presence of 2-KG, Suppl. Fig. 9g",2.154 and 2.1518 and 2.167
same,Emission ratio of 528/485,"LHGFR0N3C [3]; L-2-HG concentration 2000, in the presence of D-2-HG, Suppl. Fig. 9e",2.195 and 2.175 and 2.2011
same,Emission ratio,"LHGFR0N3C [3]; Suppl. Fig. 9a, L-2-HG alone or with the compound, three replicates",2.053 and 2.0953 and 2.06
same,LhgO activity,LhgO; crude extract of DcsiRDcsiDDlhgO-pME6032-F2-lhgR-F1-lhgO grown with the compound as sole carbon source,0.02147 and 0.02016 and 0.02474
same,LhgO activity,LhgO; crude extract of DcsiRDcsiDDlhgO-pME6032 grown with the compound as sole carbon source,0.00119 and 0.00104 and 0.00167
